According to US20040213889A1, “Method for active dry yeast rehydration and rehydration medium” (priority 2001, published 2004):

Key:
Format in all cases: cell-based, Saccharomyces
[1] = test system: active dry yeast Uvaferm CEG; assay: Duration of fermentation of deficient synthetic must MS70-fa with different added nutrients (Example 3); conditions: average of duplicates, control without addition 290
Description: 12 fermentations were carried out in parallel and in duplicate on a synthetic must MS70-fa such as described in example 1, and corresponding to a medium deficient in assimilable nitrogen (100 mg/l) and containing 200 g/l of fermentable sugars. The active dry yeast used is the commercial yeast Uvaferm CEG™ inoculated at a dosage of 20 g/hl. The yeast extract is the commercial extract Bacto-yeast extract ref. 0127-01-7 (DIFCO, USA). The vitamins and mineral salts are the standard products available from suppliers.
F1 and 2: Controls in which no yeast extract is added either into the rehydration medium of the yeast or into the fermentation medium. The control rehydration medium is the base medium: water with glucose added at 50 g/l.
F3: Fermentation carried out with the yeast CEG™ rehydrated in the presence of yeast extract (used at a dosage permitting a concentration of 30 g/hl in the must) in the rehydration medium.
F4: Fermentation carried out with the yeast CEG™ rehydrated in a control rehydration medium. The same yeast extract as for F3 is added at the start of alcoholic fermentation directly into the synthetic must MS70-fa in a dosage of 30 g/hl.
F6: Fermentation carried out with the yeast CEG™ rehydrated in a control rehydration medium. […]

[2] = test system: active dry yeast Uvaferm PM; assay: Industrial fermentation of Airen white wine must in 100 hectolitre vats (Example 7)
Description: (§1) The medium M2 containing the composition C2 has been used to rehydrate the ADYs and culture a fermentation must of a white wine in industrial conditions in a cellar in the region of la Mancha in Spain.
(§2) Assimilable Nitrogen in the must: 225 mg/l (non-Deficient must)
(§3) Fermentations have been carried out in 100 hectolitre vats according to different forms, in order to determine the most favourable conditions. Two types of ADY have been used, on their own or in the presence of other substances jointly added to the musts to encourage fermentation. In particular the influence of diammonium phosphate and a fermentation activator, added to the fermentation medium, has been studied.
(§4) The active dry yeasts Uvaferm™ CEG (Lallemand, Canada) and Uvaferm™ PM (Lallemand, Canada) have been rehydrated with the aid of the medium M2 described in example 6. For each of the two yeasts, 4 tests have been carried out, by adding:
(§5) The fermentation activator used is the activator Fermaid™ (Lallemand, Canada).
(§6) The kinetic profile of these eight fermentations was followed by measuring the density of the must and at the level of the production of a secondary component of fermentation, i.e. acetate. Indeed, acetate is responsible for the volatile acidity of wines which should be minimised in order to obtain good gustative qualities.
(§7) The values presented in table 2 correspond to fermentation times in days for each form.
(§8) The values presented in table 3 correspond to the volatile acidity measured at the end of fermentation by the Duclaux-Gayon method, known to the person skilled in the art.

[3] = test system: active dry yeast Uvaferm CEG; assay: as above
Description: as §1, §2, §3, §4, §5, §6, §7, §8

[4] = Airen must, 225 mg/l assimilable nitrogen
[5] = at end of fermentation, Duclaux-Gayon method

Row | Structure (SMILES) | fermentation time, in rehydration medium ([1]; product added in rehydration medium) [h] | fermentation time, at start of fermentation ([1]; product added to must at start of fermentation) [h] | fermentation time [2, 4] [days] | Volatile acidity [2, 5] [g/L] | fermentation time [3, 4] [days] | Volatile acidity [3, 5] [g/L]
1 | N.N.O=P(O)(O)O [Di-ammonia phosphate] | 280 | 285 | – | – | – | –
2 | N.N.O=P(O)(O)O [Test no. 1] | – | – | 8 | 0.33 | 10 | 0.48
